In patent US6897213B1, “Heterocycles as cholecystokinin (CCK) ligands” (Warner-Lambert Company, priority 1995, dated 2005) one finds Ki data, which are given here for 7 molecules.

In general, Ki refers to a measure of affinity in units of concentration, obtained from inhibition or displacement. The low end stands for tighter binding, the high end for weaker binding.

Test [1] has as its target T1, CCK-A receptor (Homo sapiens, UniProt P32238).
T1 sequence (P32238 1-428): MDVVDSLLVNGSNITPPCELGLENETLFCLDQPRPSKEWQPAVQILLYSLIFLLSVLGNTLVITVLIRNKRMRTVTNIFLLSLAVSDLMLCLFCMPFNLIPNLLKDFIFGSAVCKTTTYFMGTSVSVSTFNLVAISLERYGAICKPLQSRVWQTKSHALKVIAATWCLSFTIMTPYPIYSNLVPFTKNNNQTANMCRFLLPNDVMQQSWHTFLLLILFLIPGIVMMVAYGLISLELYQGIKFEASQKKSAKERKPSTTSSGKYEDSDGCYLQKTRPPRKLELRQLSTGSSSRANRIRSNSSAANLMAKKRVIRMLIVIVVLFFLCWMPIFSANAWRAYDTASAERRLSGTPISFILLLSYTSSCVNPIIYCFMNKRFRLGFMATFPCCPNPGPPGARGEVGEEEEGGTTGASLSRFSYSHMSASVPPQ
Kind of test: CCK-A receptor binding affinity. An excerpt: (§1) The following table represents the CCK-A and CCK-B receptor binding affinities of the compounds.
(§2) The testing procedures are disclosed in Hays et al, Neuropeptides 1:53-62, 1980; and Satuer et al, Science 208:1155-1156, 1980.

Test [2] concerns the target T2, CCK-B receptor (Mus musculus, UniProt P56481).
T2 construct: from tissue; host or cells: mouse (male CFLP) cerebral cortex membranes
T2 sequence (P56481 1-453): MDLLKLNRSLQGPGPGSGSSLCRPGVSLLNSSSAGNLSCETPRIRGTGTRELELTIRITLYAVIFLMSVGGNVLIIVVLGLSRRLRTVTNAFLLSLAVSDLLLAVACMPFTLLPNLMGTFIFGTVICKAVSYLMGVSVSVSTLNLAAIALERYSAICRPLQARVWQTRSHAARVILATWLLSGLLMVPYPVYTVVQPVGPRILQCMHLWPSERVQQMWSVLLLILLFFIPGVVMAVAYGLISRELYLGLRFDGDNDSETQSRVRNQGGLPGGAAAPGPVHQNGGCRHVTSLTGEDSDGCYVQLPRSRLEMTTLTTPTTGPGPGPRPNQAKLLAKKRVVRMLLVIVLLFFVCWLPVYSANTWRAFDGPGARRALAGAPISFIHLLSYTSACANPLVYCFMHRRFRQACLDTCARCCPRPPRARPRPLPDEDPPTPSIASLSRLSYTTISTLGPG
The experiment in a line: CCK-B receptor binding affinity (tritiated-pentagastrin displacement, mouse cerebral cortical membranes). Particulars: 2 nM tritiated-pentagastrin, Ki by Cheng-Prusoff. As for the experimental part:
The biological activity of compounds of the present invention may be evaluated by employing an initial screening test which rapidly and accurately measures the binding of the tested compound to known CCK receptor sites. […] (See Hays et al, Neuropeptides 1:53-62, 1980; and Satuer et al, Science 208:1155-1156, 1980).
In this screening test, the cerebral cortices taken from male CFLP mice weighing between 30-40 g were dissected on ice, weighed, and homogenized in 10 volumes of 50 mM Tris-HCl buffer (pH 7.4 at 0-4° C.). The resulting suspension was centrifuged, the supernate was discarded, and the pellet was washed by resuspension in Tris-HCl buffer followed by recentrifugation. The final pellet was resuspended in 20 volumes of […] buffer (pH 7.2 at 23° C.) containing 130 mM NaCl, […], […], 1 […].
In saturation studies, cerebral cortical membranes were incubated at 23° C. for 120 minutes in a final volume of 500 μL of Hepes incubation buffer (pH 7.2) together with 0.2-20 nM tritiated—pentagastrin (Amersham International, England).
In the displacement experiments, membranes were incubated with a single concentration (2 nM) of ligand, together with increasing concentrations (10^11 to 10^14 M) of competitive test compound. In each case, the nonspecific binding was defined as that persisting in the presence of the unlabeled octapeptide CCK26-33 (10^−6M).
Following incubation, radioactivity bound to membranes was separated from that free in solution by rapid filtration through Whatman GF/B filters and washed three times with 4 mL of ice cold Tris-HCl buffer. Filters from samples incubated with tritiated-pentagastrin were placed in polyethylene vials with 4 mL of scintillation cocktail, and the radioactivity was estimated by liquid scintillation spectrometry (efficiency 47-52%).
The specific binding to CCK receptor sites was defined as the total bound tritiated-pentagastrin minus the amount of tritiated-pentagastrin bound in the presence of 10^−6 octapeptide, CCK26-33.
Saturation curves for specific tritiated-pentagastrin binding to mouse cortical membranes were analyzed by the methods of Scatchard (Ann. New York Acad. Sci. 51:660-672, 1949, and Hill (J. Physiol. 40:IV-VIII, 1910), to provide estimates for the maximum number of binding sites (Bmax) and the equilibrium dissociation constant (Ka).
In displacement experiments, inhibition curves were analyzed by either logit-log plots or the iterative curve fitting computer program ALLFIT (DeLean, Munson and Redbard, 1978) to provide estimates of the IC50 and nH (apparent Hill coefficient values).
The inhibition constant (Ki) of the test compound was then calculated according to the Cheng-Prusoff equation: [formula] where [L] is the concentration of radiolabel and Ka is the equilibrium dissociation constant.
The Ki values for several representative compounds of the present invention are present in Table I.
as §1, §2

Take `CC(C)Oc1cccc(-n2c(NNC(=O)Nc3ccc(Cl)cc3)nc3ccccc3c2=O)c1` [No. 13, Hydrazinecarboxamide, N-(4-Chlorophenyl)-2-[3,4-dihydro-3-[3-(1-methylethoxy)phenyl]-4-oxo-2-quinazolinyl]]: the values for the Ki in test [1] and in test [2] were 3640 nM and 12.9 nM, respectively.

In the case of `CC(C)Oc1cccc(-n2c(NNC(=O)Nc3ccc(Br)cc3)nc3ccccc3c2=O)c1` [No. 1, Hydrazinecarboxamide, N-(4-bromophenyl)-2-[3,4-dihydro-3-[3-(1-methylethoxy)-phenyl]-4-oxo-2-quinazolinyl]-], the inhibition constant (Ki) turned out to be 3430 nM in test [1] and 16 nM in test [2].

On to `CN(C)c1cccc(-n2c(NNC(=O)Nc3cccc(C#N)c3)nc3ccccc3c2=O)c1` [No. 40], for which the inhibition constant Ki in test [1] is 5740 nM; in test [2] it was 18.1 nM.

Take `CCOC(=O)c1cccc(NC(=O)NNc2nc3ccccc3c(=O)n2-c2ccc(Cl)c(Cl)c2)c1` [No. 21]: the Ki in test [1] is 1760 nM; in test [2] it was 53.4 nM.

For the molecule `CC(C)Oc1cccc(-n2c(NNC(=O)Nc3cccc(C(=O)OC(C)(C)C)c3)nc3ccccc3c2=O)c1` [No. 7], the Ki in test [1] turned out to be 3580 nM; in test [2], 2 nM.

With `CC(C)Oc1cccc(-n2c(NNC(=O)NC3CCCCC3)nc3ccccc3c2=O)c1` [No. 15, Hydrazinecarboxamide, N-(cyclohexyl)-2-[3,4-dihydro-3-[3-(1-methylethoxy)phenyl]-4-oxo-2-quinazolinyl]-], the Ki in test [1] stood at 17700 nM; in test [2] it was 105 nM.

For the molecule `CC(C)Oc1cccc(-n2c(NNC(=O)Nc3cccc(C#N)c3)nc3ccccc3c2=O)c1` [No. 14, Hydrazinecarboxamide, N-(3-cyanohenyl)-2-[3,4-dihydro-3-[3-(1-methylethoxoy)phenyl]-4-oxo-2-quinazolinyl]-], the values for the Ki in test [1] and in test [2] were 5390 nM and 1.2 nM, respectively.
